{"source": "patent US10471059B2", "about": "“Compositions and methods of using tyrosine kinase inhibitors” (YALE UNIVERSITY, priority 2015, dated 2019)", "key": {"Ptpn11^D61G/+ mice": {"system": "Ptpn11^D61G/+ mice", "test": "Quantitative RT-PCR of heart RNA, NS mice, postnatal dasatinib", "assay_type": "in vivo", "details": "P56", "protocol": "FIG. 15, comprising FIG. 15a-15j, is a panel of images showing cardiomyopathy and cardiac fibrosis in Ptpn11^D61G/+ mice rescued by dasatinib. […] FIG. 15e is a graph showing relative expression of fibrosis marker gene, Col1a2. […] FIG. 15f is a graph showing relative expression of fibrosis marker gene, Col3a1. FIG. 15g is a graph showing relative expression of cardiac fetal gene, Myh6 (αMHC). FIG. 15h is a graph showing relative expression of cardiac fetal gene, Myh7 (βMHC). FIG. 15i is a graph showing relative expression of cardiac fetal gene, Anf. FIG. 15j is a graph showing relative expression of cardiac fetal gene, Bnp. The genes were measured by quantitative RT-PCR (n=6 for each group). […] (Two-way ANOVA test).\n(§1) RNA Extraction and Quantitative Real-Time PCR Analysis—RNA was isolated from mice heart using an RNeasy kit (Qiagen, CA) according to the manufacturer's instructions. A total of 1 μg RNA was reverse transcribed to generate cDNA using a reverse transcriptase PCR kit (Applied Biosystems, CA). Real-time quantitative PCR was carried out in triplicate using the Applied Biosystems 7500 Fast real-time PCR system and SYBR green gene expression master mix with following primer pairs.\nAll relative gene expression levels were analyzed using the ΔCT method and normalized to 18S rRNA expression."}, "Ptpn11^Y279C/+ mice": {"system": "Ptpn11^Y279C/+ mice", "test": "Quantitative RT-PCR of heart RNA, NSML mice, postnatal dasatinib", "assay_type": "in vivo", "protocol": "FIG. 25, comprising FIGS. 25a-25f, is a panel of graphs showing the improvement in molecular markers of cardiomyopathy and fibrosis in NSML (Y279C/+) mice following dasatinib treatment. Total heart RNA was isolated from postnatal vehicle- or dasatinib-treated (0.1 mg/kg/day) WT and Ptpn11^Y279C/+ mice (P42). Fibrosis marker genes, Col1a2 (FIG. 25a) and Col3a1 (FIG. 25b), markers of cardiomyopathy ANP (FIG. 25c) and cardiac fetal genes, Myh6 (αMHC) (FIG. 25d), Myh7 (bMHC) (FIG. 25e), and Myh6/Myh7 ratio (FIG. 25f) were measured by quantitative RT-PCR (n=6 for each group). All data represent mean±SEM. *, p<0.05; **, p<0.01; ***, p<0.001. (Two-way ANOVA test).\nas §1\nThe data presented in FIGS. 25a-25f represents dasatinib treatment starting at post-natal day 10 (P10) for 6 weeks (P42) in wild type (WT) and NSML (Ptpn11^Y279C/+) mice. Ptpn11^Y279C/+ were obtained from Dr. Kontaridis (Beth Israel Deaconess Hospital, Boston, Mass.) and bred as described (Marin, et al, J Clin. Invest., 121:1026-1043(2011)). Mice were treated with either vehicle or dasatinib at a dose of 0.1 mg/kg/day for 6 weeks […]. At the completion of the study, wild type and Ptpn11^Y279C/+ mice were sacrificed and total RNA from the hearts was isolated and qPCR was performed for the detection of mRNA expression for genes involved in the development of cardiomyopathy, Myh6 and Myh7 and the development of cardiac fibrosis, col1a2 and Col3a1."}, "[1]": {"system": "WT and Ptpn11^D61G/+ mice", "test": "Liver damage (H&E histology, serum ALT) after postnatal dasatinib", "details": "postnatal 0.1 mg/kg/day; wild type or NS mice; monohydrate", "source_text": "All data present mean±SEM. *, p<0.05; ***, p<0.001. (n=7˜10 for each group; Two-way ANOVA test).\nHistology—Heart, liver and spleen were isolated from vehicle- or dasatinib-treated wild type and NS mice. Tissues were fixed in 4% paraformaldehyde in phosphate-buffer saline (PBS), processed for paraffin sections and stained with hematoxylin and eosin (H&E) or Masson's Trichrome. Tissue images were obtained under bright field microscopy (Olympus BX51, Yale Liver Center)."}, "[2]": {"system": "Ptpn11^D61G/+ X WT breeder", "test": "Progeny from prenatal dasatinib treated Ptpn11D61G/+ X WT breeder", "protocol": "Vehicle-injected mice served as control.\nDasatinib was administered into pregnant mothers and amelioration of cardiac defects in NS mice was assessed. Dasatinib was administered at 0.1, 0.5 or 1.0 mg/kg daily interperitoneally into wild type pregnant mice intercrossed with NS mice, beginning at embryonic day 7 until postnatal day 9 (in nursing females). After postnatal day 10 (P10), dasatinib injections resumed directly into individual pups daily until 8-weeks (P56) after birth (FIG. 14a)."}, "[3]": {"details": "postnatal 0.1 mg/kg/day from P10 for 6 weeks, Ptpn11Y279C/+ mice"}}, "note": "Entries after “also recorded” stand apart in the source; their conditions may differ.", "data": [{"molecule": "Cc1nc(Nc2ncc(C(=O)Nc3c(C)cccc3Cl)s2)cc(N2CCN(CCO)CC2)n1.O", "note": "[Dasatinib, N-(2-chloro-6-methylphenyl)-2-[[6-[4-(2-hydroxyethyl)-1-piperazinyl]-2-methyl-4-pyrimidinyl]amino]-5-thiazole carboxamide monohydrate]", "values": [{"measurement": "Anp and Bnp mRNA expression", "setting": "Ptpn11^D61G/+ mice", "result": "completely rescued"}, {"measurement": "MYH6 expression", "setting": "Ptpn11^D61G/+ mice", "result": "equivalent level of MYH6 expression in wild type and NS mice"}, {"measurement": "MYH7 expression", "setting": "Ptpn11^D61G/+ mice", "result": "completely normalized"}, {"measurement": "mRNA expression of fibrotic genes Col1a2 and Col3a1", "setting": "Ptpn11^D61G/+ mice", "result": "reduced mRNA expression levels"}, {"measurement": "molecular markers of cardiomyopathy and fibrosis", "setting": "Ptpn11^Y279C/+ mice; 0.1 mg/kg/day, NSML (Y279C/+) mice", "result": "improvement"}, {"measurement": "expression of ANP, Myh6 and Myh7", "setting": "Ptpn11^Y279C/+ mice; [3]", "result": "complete restoration back to wild type levels"}, {"measurement": "ratio of Myh6/Myh7", "setting": "Ptpn11^Y279C/+ mice; [3]", "result": "restored to wild type levels"}, {"measurement": "liver damage", "setting": "[1]", "result": "no evidence of liver damage; also recorded: does not induce liver damage"}, {"measurement": "adverse effects", "setting": "[2]; mouse, in vivo, ip, 0.1 mg/kg", "result": "no observable adverse effects"}, {"measurement": "Dead pups", "setting": "[2]; prenatal dasatinib 0.1 mg/kg, number of pups", "result": 4}, {"measurement": "embryonic lethality", "setting": "[2]; prenatal treatment at 0.5 and 1.0 mg/kg/per day i.p.", "result": "embryonic lethality"}]}]}
